In ChEMBL document CHEMBL4406843, “β-Amino acid derivatives as mitochondrial complex III inhibitors of L. donovani: A promising chemotype targeting visceral leishmaniasis” (Eur J Med Chem, 2019):
Active and inactive are the calls of the source. The calls are words filed in the database; no cut-off is given here.

How the values were obtained:
Leishmania donovani [1] = assay: Antileishmanial activity against promastigote stage of Leishmania donovani MHOM/IN/80/Dd8 harboring luciferase reporter gene at 50 uM after 48 hrs by Steady-Glo luminescence assay relative to control; assay type: functional; settings: MHOM/IN/80/Dd8, 48 h
Leishmania donovani [2] = assay: Inhibition of ubiquinol cytochrome c reductase in Leishmania donovani promastigotes mitochondria at 50 uM using decylubiquinol as substrate in presence of cytochrome c relative to control
[3] = Half life in BALB/c mouse at 50 mg/kg, ip by HPLC analysis; assay type: ADME, organism-based; settings: in vivo
[4] = Cytotoxicity against mouse J774 cells assessed as cell viability up to 100 uM after 72 hrs by MTT assay relative to control; assay type: cell-based; settings: read-out: Activity
[5] = AUC(0 to 24 hrs) in BALB/c mouse at 50 mg/kg, ip by HPLC analysis; assay type: ADME, organism-based; design: dose 50 mg/kg, time < 24 hr, route intraperitoneal; settings: in vivo
[6] = Volume of distribution in BALB/c mouse at 50 mg/kg, ip by HPLC analysis; assay type: ADME, organism-based; settings: in vivo
Leishmania donovani [7] = assay: Induction of ROS generation in Leishmania donovani promastigotes at 50 uM after 24 hrs by H2DCFDA probe based flow cytometry (reference value: 1.97%); assay type: functional
[8] = AUC(0 to infinity) in BALB/c mouse at 50 mg/kg, ip by HPLC analysis; assay type: ADME, organism-based; design: dose 50 mg/kg, route intraperitoneal, time infinity; settings: in vivo
Leishmania donovani [9] = assay: Induction of apoptosis in Leishmania donovani promastigotes assessed as early apoptotic cells at 50 uM after 48 hrs by Annexin-V/propidium iodide staining based flow cytometric method (reference value: 5.79%); assay type: functional
[10] = Stability in simulated gastric fluid at 10 ug/ml measured after 2 hrs by UPLC analysis relative to control; assay type: ADME; settings: read-out: Stability
Leishmania donovani [11] = assay: Induction of bio-energetic collapse in Leishmania donovani promastigotes assessed as reduction in ATP level at 50 uM after 48 hrs by bioluminescence based method relative to control; assay type: functional; design: scale not given: the % may be the effect or the level left
Leishmania donovani [12] = assay: Induction of apoptosis in Leishmania donovani promastigotes assessed as necrotic cells at 50 uM after 48 hrs by Annexin-V/propidium iodide staining based flow cytometric method (reference value: 0.06%); assay type: functional
Leishmania donovani [13] = assay: Induction of ROS generation in Leishmania donovani promastigotes at 50 uM after 3 hrs by H2DCFDA probe based flow cytometry (reference value: 1.97%); assay type: functional
Leishmania donovani [14] = assay: Antileishmanial activity against Leishmania donovani promastigotes infected in BALB/c mouse assessed as inhibition in parasite burden in spleen at 50 mg/kg, ip administered for 7 days starting at 15 days post-infection and measured after 1 week post last dose Giemsa staining-based assay relative to control; assay type: functional
Leishmania donovani [15] = assay: Induction of membrane depolarization in Leishmania donovani promastigotes assessed as increase in fluorescence at 50 uM by DiBAC4 dye based flow cytometry analysis relative to relative to 0.1% Triton X-100; assay type: functional
Leishmania donovani [16] = assay: Induction of apoptosis in Leishmania donovani promastigotes assessed as necrotic cells at 50 uM after 24 hrs by Annexin-V/propidium iodide staining based flow cytometric method (reference value: 0.06%); assay type: functional
[17] = Cytotoxicity against BALB/c mouse splenocytes assessed as cell viability at 100 uM after 72 hrs by MTT assay relative to control; assay type: cell-based, Splenocyte; settings: read-out: Activity
[18] = Elimination rate constant in BALB/c mouse at 50 mg/kg, ip by HPLC analysis; assay type: ADME, organism-based; settings: in vivo
Leishmania donovani [19] = assay: Antileishmanial activity against Leishmania donovani promastigotes infected in BALB/c mouse assessed as reduction in parasite burden in spleen at 25 mg/kg, ip administered for 7 days starting at 15 days post-infection and measured after 1 week post last dose Giemsa staining-based assay relative to control; assay type: functional
[20] = Toxicity in BALB/c mouse infected with Leishmania donovani promastigotes assessed as effect on body weight at 12.5 to 200 mg/kg, ip administered for 7 days starting at 15 days post-infection; assay type: organism-based; settings: in vivo
[21] = Toxicity in golden hamster infected with Leishmania donovani amastigotes assessed as effect on survival at 12.5 to 200 mg/kg, ip administered on alternative days for 4 weeks starting at 4 weeks post-infection; assay type: organism-based, Mesocricetus auratus; settings: in vivo, 672 h
Leishmania donovani [22] = assay: Induction of apoptosis in Leishmania donovani promastigotes assessed as early apoptotic cells at 50 uM after 24 hrs by Annexin-V/propidium iodide staining based flow cytometric method (reference value: 5.79%); assay type: functional
Leishmania donovani [23] = assay: Inhibition of […] in Leishmania donovani promastigotes mitochondria at 8.1 to 50 uM using decylubiquinol as substrate in presence of cytochrome c
Leishmania donovani [24] = assay: Antileishmanial activity against promastigote stage of Leishmania donovani MHOM/IN/80/Dd8 harboring luciferase reporter gene at 25 uM after 48 hrs by Steady-Glo luminescence assay relative to control; assay type: functional; settings: MHOM/IN/80/Dd8, 48 h
Leishmania donovani [25] = assay: Induction of mitochondrial dysfunction in Leishmania donovani promastigotes assessed as reduction in mitochondrial membrane potential at 50 uM after 12 hrs by JC-1 staining-based flow cytometric analysis (reference value: 7.73%); assay type: functional; design: scale not given: the % may be the effect or the level left
[26] = Toxicity in BALB/c mouse infected with Leishmania donovani promastigotes assessed as serum AST level at 50 mg/kg , ip measured after 3 to 7 weeks (reference value: 114 U/L); assay type: organism-based; settings: in vivo
[27] = Cytotoxicity against mouse J774 cells assessed as reduction in cell viability after 72 hrs by MTT assay; assay type: cell-based
Mus musculus = assay: Immunostimulatory activity in BALB/c mouse infected with Leishmania donovani promastigotes assessed as induction of IL-2 cytokine production at 50 mg/kg administered for 5 days starting at 15 days post infection and measured after 3 to 7 weeks by ELISA; assay type: functional, organism-based
Leishmania donovani [28] = assay: Inhibition of succinate-ubiquinone oxidoreductase in Leishmania donovani promastigotes mitochondria at 8.1 to 50 uM using succinate as substrate in presence fo DCPIP by photometry analysis
Leishmania donovani [29] = assay: Induction of mitochondrial membrane depolarization in Leishmania donovani promastigotes assessed as disruption of cristae at 50 uM after 24 hrs by TEM analysis; assay type: functional, organism-based
Leishmania donovani [30] = assay: Antileishmanial activity against Leishmania donovani promastigotes infected in BALB/c mouse assessed as reduction in parasite burden in liver at 25 mg/kg, ip administered for 7 days starting at 15 days post-infection and measured after 1 week post last dose Giemsa staining-based assay relative to control; assay type: functional
Leishmania donovani [31] = assay: Induction of membrane depolarization in Leishmania donovani promastigotes assessed as increase in fluorescence at MIC by DiBAC4 dye based flow cytometry analysis; assay type: functional, organism-based; settings: TDE = time-dependent effect
Leishmania donovani [32] = assay: Antileishmanial activity against Leishmania donovani amastigotes infected in golden hamster assessed as reduction in parasite burden in liver at 50 mg/kg, ip administered on alternative days for 4 weeks starting at 4 weeks post-infection and measured after 2 week post last dose Giemsa staining-based assay relative to control; assay type: functional
Leishmania donovani [33] = assay: Induction of apoptosis in Leishmania donovani promastigotes assessed as late apoptotic cells at 50 uM after 24 hrs by Annexin-V/propidium iodide staining based flow cytometric method (reference value: 0.59%); assay type: functional
[34] = Stability in simulated intestinal fluid at 10 ug/ml measured after 2 hrs by UPLC analysis relative to control; assay type: ADME; settings: read-out: Stability
[35] = Stability in mouse plasma at 10 ug/ml measured after 2 hrs by UPLC analysis relative to control; assay type: ADME, cell-free; settings: read-out: Stability

CCOC(=O)C(C(=O)c1ccc(OC)cc1)C(NC(C)=O)c1cccc2ccccc12 (stereo unspecified)
inhibition at 50 µM (Leishmania donovani [1]): 96.6%
inhibition (Leishmania donovani [2]): > 49%
half-life [3]: 5.11 h
viability at 72 h [4]: > 93%
AUC(0-t) at 24 h [5]: 1280 ng·h/mL
Vd [6]: 301.51 L/kg
Activity (Leishmania donovani [7]): 85.54%
AUC(0-inf) [8]: 1280 ng·h/mL
Activity (Leishmania donovani [9]): 17.8%
remaining at 2 h, 10 ug/ml [10]: 81.9%
Activity (Leishmania donovani [11]): >67%
Activity (Leishmania donovani [12]): 0.11%
Activity (Leishmania donovani [13]): 7.49%
inhibition in vivo at 50 mg/kg (Leishmania donovani [14]): 92.5%
Activity (Leishmania donovani [15]): <=78.5%
Activity (Leishmania donovani [16]): 0.07%
viability at 72 h, 100 µM [17]: > 90.2%
k el [18]: 3.89e-05 s⁻¹
inhibition in vivo at 25 mg/kg (Leishmania donovani [19]): 68.5%
Activity [20]: Non-Toxic
Activity [21]: Non-Toxic
Activity (Leishmania donovani [22]): 8.56%
inhibition (Leishmania donovani [23]): inactive
inhibition at 25 µM (Leishmania donovani [24]): 85.3%
Activity (Leishmania donovani [25]): 37.26%
Activity [26]: 54 to 298 IU/L
CC50 at 72 h [27]: > 350 µM
Activity (Mus musculus): inactive
inhibition (Leishmania donovani [28]): inactive
Activity (Leishmania donovani [29]): Active
inhibition in vivo at 25 mg/kg (Leishmania donovani [30]): 67.6%
Activity (Leishmania donovani [31]): Tde
inhibition in vivo at 50 mg/kg (Leishmania donovani [32]): 88.2%
Activity (Leishmania donovani [33]): 0.8%
remaining at 2 h, 10 ug/ml [34]: 80.2%
remaining at 2 h, 10 ug/ml [35]: 81%
